In patent US20230201144A1, “BIARYLSULFONAMIDES AND PHARMACEUTICAL COMPOSITIONS THEREOF, AND THEIR USE FOR TREATING FIBROTIC LUNG DISEASE” (NovoMedix, LLC, priority 2020, published 2023):
Where “and” joins values, the source holds several entries; their conditions need not be identical. Equal values may be shown once.

Test system: Alpha smooth muscle actin (α-SMA) levels
Assay: α-SMA levels by Western blot in TGF-β-treated normal human lung fibroblasts (headed Cell Proliferation Assay)
Assay type: cell-based
Conditions: 10 ng/mL TGF-β, 24 h; for Relative α-SMA 5 μM / Relative α-SMA 20 μM: Table 4; for Relative α-SMA 5 μM: compound 5 μM; for Relative α-SMA 20 μM: compound 20 μM
Experimental: Normal human lung fibroblasts were plated in a 6-well plate at 100,000 cells per well in 1 mL of DMEM supplemented with 10% FBS. The cells were incubated overnight at 37° C. under 5% CO2. The next day, the cells were serum starved (medium was removed and 1 mL of fresh DMEM without serum was added). The cells were incubated overnight.
The cells were treated with a test compound in DMEM, 5% FBS in the presence of 10 ng/mL TGF-β and incubated for 24 h. The cells were lysed with an M-PER buffer. Alpha smooth muscle actin (α-SMA) levels were determined by Western blot and normalized to 0-tubulin levels using cell signaling antibodies. Blots were probed with secondary antibodies from LI-COR® Biosciences and read using a scanner from LI-COR® Biosciences. Quantification was also done using a software from LI-COR® Biosciences. The results are shown in Tables 1 to 4 below, where the control (Ctrl) is the fibroblasts in the absence of TGF-β and a test compound.

[1] = single agent 5 μM, TGF-β alone = 1 (Tables 1-3)
[2] = single agent 10 μM, TGF-β alone = 1
[3] = single agent 20 μM, TGF-β alone = 1 (Tables 1-3)

SMILES	Relative α-SMA 5 μM	Relative α-SMA 20 μM	also measured
COC(=O)c1cc(NS(=O)(=O)c2c(C(C)C)cc(C(C)C)cc2C(C)C)cc(C(F)(F)F)c1 [A2, Methyl 3-(trifluoromethyl)-5-((2,4,6-triisopropylphenyl)sulfonamido)benzoate]	1.05	0.23	–
Cc1cc(C(C)(C)C)cc(C)c1S(=O)(=O)Nc1cc(OCCN(C)C)cc(C(F)(F)F)c1 [A12, 4-(Tert-butyl)-N-(3-(2-(dimethylamino)ethoxy)-5-(trifluoromethyl)phenyl)-2,6-dimethylbenzenesulfonamide]	0.37	–	–
Cc1cc(NS(=O)(=O)c2c(C(C)C)cc(C(C)C)cc2C(C)C)cc(C(F)(F)F)c1 [A1, 2,4,6-Triisopropyl-N-(3-methyl-5-(trifluoromethyl)phenyl)benzenesulfonamide]	0.98	0.37	–
Cc1cc(C(C)(C)C)cc(C)c1S(=O)(=O)Nc1cc(CCCN(C)C)cc(C(F)(F)F)c1 [A13, 4-(Tert-butyl)-N-(3-(3-(dimethylamino)propyl)-5-(trifluoromethyl)phenyl)-2,6-dimethylbenzenesulfonamide]	0.29	–	–
Cc1cc(C(C)(C)C)cc(C)c1S(=O)(=O)Nc1cc(CCCN2CCOCC2)cc(C(F)(F)F)c1 [A14, 4-(Tert-butyl)-2,6-dimethyl-N-(3-(3-morpholinopropyl)-5-(trifluoromethyl)-phenyl)benzenesulfonamide]	0.53	–	–
Cc1ccc(=O)n(-c2ccccc2)c1 [P, pirfenidone, reference compound]	–	–	Relative α-SMA (single agent 200 μM, TGF-β alone = 1): 1.29 and 1.02
CCN(CC)c1cc(NS(=O)(=O)c2c(C(C)C)cc(C(C)C)cc2C(C)C)cc(C(F)(F)F)c1 [A8, N-(3-(Diethylamino)-5-(trifluoromethyl)phenyl)-2,4,6-triisopropylbenzenesulfonamide]	0.88	0.33	–
Cc1cc(C(C)(C)C)cc(C)c1S(=O)(=O)Nc1cc(Br)cc(C(F)(F)F)c1 [A16, N-(3-Bromo-5-(trifluoromethyl)phenyl)-4-(tert-butyl)-2,6-dimethylbenzenesulfonamide]	0.35	–	–
Cc1c(NS(=O)(=O)c2c(C(C)C)cc(C(C)C)cc2C(C)C)cc(O)cc1C(F)(F)F [A20, N-(5-Hydroxy-2-methyl-3-(trifluoromethyl)phenyl)-2,4,6-triisopropylbenzenesulfonamide]	0.27	–	–
COC(=O)c1ccc2c(c1)NC(=O)/C2=C(\Nc1ccc(N(C)C(=O)CN2CCN(C)CC2)cc1)c1ccccc1 [N, nintedanib, reference compound]	–	–	Relative α-SMA [1]: 0.82 and 0.92 and 0.97
CC(C)c1cc(C(C)C)c(S(=O)(=O)Nc2cc(C(=O)O)cc(C(F)(F)F)c2)c(C(C)C)c1 [A3, 3-(Trifluoromethyl)-5-((2,4,6-triisopropylphenyl)sulfonamido)benzoic acid]	0.79	0.73	–
CC(=O)Nc1cc(NS(=O)(=O)c2c(C(C)C)cc(C(C)C)cc2C(C)C)cc(C(F)(F)F)c1 [A7, N-(3-(Trifluoromethyl)-5-((2,4,6-triisopropylphenyl)sulfonamido)phenyl)-acetamide]	1.60	0.33	–
CC(C)c1cc(C(C)C)c(S(=O)(=O)Nc2cc(OCCCCN)cc(C(F)(F)F)c2)c(C(C)C)c1 [A11, N-(3-(4-Aminobutoxy)-5-(trifluoromethyl)phenyl)-2,4,6-triisopropylbenzenesulfonamide]	0.85	–	–
COc1cc(NS(=O)(=O)c2c(C(C)C)cc(C(C)C)cc2C(C)C)c(C)c(C(F)(F)F)c1 [A19, 2,4,6-Triisopropyl-N-(5-methoxy-2-methyl-3-(trifluoromethyl)phenyl)-benzenesulfonamide]	0.56	–	–
CC(C)c1cc(C(C)C)c(S(=O)(=O)Nc2cc(N)cc(C(F)(F)F)c2)c(C(C)C)c1 [A6, N-(3-Amino-5-(trifluoromethyl)phenyl)-2,4,6-triisopropylbenzenesulfonamide]	1.08	0.05	–
Cc1cc(C(C)(C)C)cc(C)c1S(=O)(=O)Nc1cc(O)cc(C(F)(F)F)c1 [A18, 4-(Tert-butyl)-N-(3-hydroxy-5-(trifluoromethyl)phenyl)-2,6-dimethylbenzenesulfonamide]	0.57	0.28	Relative α-SMA [1]: 1.26; Relative α-SMA [2]: 0.86; Relative α-SMA [3]: 0.06
Cc1cc(C(C)(C)C)cc(C)c1S(=O)(=O)Nc1cc(C2CCNCC2)cc(C(F)(F)F)c1 [A22, 4-(Tert-butyl)-2,6-dimethyl-N-(3-(piperidin-4-yl)-5-(trifluoromethyl)phenyl)-benzenesulfonamide]	0.21	0.12	–
Cc1cc(C(C)(C)C)cc(C)c1S(=O)(=O)Nc1cc(OCCCCN)cc(C(F)(F)F)c1 [A10, N-(3-(4-Aminobutoxy)-5-(trifluoromethyl)phenyl)-4-(tert-butyl)-2,6-dimethylbenzenesulfonamide]	0.69	–	–
Cc1c(NS(=O)(=O)c2c(C(C)C)cc(C(C)C)cc2C(C)C)cc(C(F)(F)F)cc1C(F)(F)F [B4, N-(2-methyl-3,5-bis(trifluoromethyl)phenyl)-2,4,6-triisopropyl-benzene-sulfonamide]	–	–	Relative α-SMA (single agent 2 μM, normalized to tubulin, TGF-β alone = 1): 0.95; Relative α-SMA [1]: 0.69; Relative α-SMA [2]: 0.15
Cc1cc(C(C)(C)C)cc(C)c1S(=O)(=O)Nc1cc(OCCCC#N)cc(C(F)(F)F)c1 [A9, 4-(Tert-butyl)-N-(3-(3-cyanopropoxy)-5-(trifluoromethyl)phenyl)-2,6-dimethylbenzenesulfonamide]	1.05	0.78	–
Cc1c(Br)cc(C(F)(F)F)cc1NS(=O)(=O)c1c(C(C)C)cc(C(C)C)cc1C(C)C [A21, N-(3-Bromo-2-methyl-5-(trifluoromethyl)phenyl)-2,4,6-triisopropylbenzenesulfonamide]	0.45	–	–
CC(C)c1cc(C(C)C)c(S(=O)(=O)Nc2cc(NC(=O)OC(C)(C)C)cc(C(F)(F)F)c2)c(C(C)C)c1 [A5, Tert-butyl (3-(trifluoromethyl)-5-((2,4,6-triisopropylphenyl)sulfonamido)-phenyl)carbamate]	0.95	0.21	–
Cc1cc(C(C)(C)C)cc(C)c1S(=O)(=O)Nc1cc(C2CCN(C)CC2)cc(C(F)(F)F)c1 [A15, 4-(Tert-butyl)-2,6-dimethyl-N-(3-(1-methylpiperidin-4-yl)-5-(trifluoromethyl)-phenyl)benzenesulfonamide]	0.31	–	–
CCCCNC(=O)c1cc(NS(=O)(=O)c2c(C(C)C)cc(C(C)C)cc2C(C)C)cc(C(F)(F)F)c1 [A4, N-Butyl-3-(trifluoromethyl)-5-((2,4,6-triisopropylphenyl)sulfonamido)benzamide]	1.30	0.46	–
COc1cc(NS(=O)(=O)c2c(C)cc(C(C)(C)C)cc2C)cc(C(F)(F)F)c1 [A17, 4-(Tert-butyl)-N-(3-methoxy-5-(trifluoromethyl)phenyl)-2,6-dimethylbenzenesulfonamide]	0.46	–	–
Cc1cc(C(C)(C)C)cc(C)c1S(=O)(=O)Nc1cc(C(F)(F)F)cc(C(F)(F)F)c1 [B5, N-(3,5-bis(trifluoromethyl)phenyl)-4-(tert-butyl)-2,6-dimethylbenzene-sulfonamide]	–	–	Relative α-SMA [1]: 0.91; Relative α-SMA [2]: 0.75; Relative α-SMA [3]: 0.24
